# Measured values taken from US12378224B2 (Dong-A Socio Holdings Co., Ltd., priority 2016, dated 2025).
# Biological target: human c-MER catalytic domain (Homo sapiens (Human), UniProt Q12866)
# Assay: TR-FRET Kinase Activity Biochemical Assay (LanthaScreen)
# Conditions: 10 uM ATP, 1 hour, kinase not given
# How it was run: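 Recombinant human c-MER catalytic domain phosphorylated fluorescein-labeled poly-GT substrate. The reaction was stopped with 10 mM EDTA, then 2 nM Tb-labeled anti-phosphotyrosine antibody was added for 30 min. Kinase activity was taken from the 495/520 nm TR-FRET emission ratio after 340 nm excitation.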
# Sequence of human c-MER catalytic domain (Q12866 587-858): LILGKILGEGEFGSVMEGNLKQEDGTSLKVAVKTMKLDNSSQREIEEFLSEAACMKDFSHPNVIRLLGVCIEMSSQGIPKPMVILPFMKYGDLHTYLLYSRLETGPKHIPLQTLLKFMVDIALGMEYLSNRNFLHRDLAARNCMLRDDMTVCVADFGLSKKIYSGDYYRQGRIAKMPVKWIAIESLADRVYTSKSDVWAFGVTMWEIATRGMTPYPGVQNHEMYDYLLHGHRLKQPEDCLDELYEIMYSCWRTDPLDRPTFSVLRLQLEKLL
row,Compound,IC50
1,"C=Cc1ccc(C(=O)N2CC[C@@H](NC(=O)c3cc(-c4cnn(C)c4)cnc3N)C2)cc1 [Example 417, (R)-2-amino-5-(1-methyl-1H-pyrazol-4-yl)-N-(1-(4-vinylbenzoyl)pyrrolidin-3-yl)nicotinamide]",100 to 1000 nM
2,"CN(C)Cc1ccc(-c2cccc(NC(=O)N3CC[C@@H](NC(=O)c4cc(-c5cnn(C)c5)cnc4N)C3)c2)cc1 [Example 266, (R)-2-amino-N-(1-((4′-((dimethylamino)methyl)-[1,1′-biphenyl]-3-yl)carbamoyl)pyrrolidin-3-yl)-5-(1-methyl-1H-pyrazol-4-yl)nicotinamide]",10 to 100 nM
3,"Cn1cc(-c2cnc(N)c(C(=O)N[C@@H]3CCN(C(=O)c4ccc(-c5ccc(C(C)(C)N)cc5)cc4)C3)c2)cn1 [Example 801, (R)-2-amino-N-(1-(4′-(2-aminopropan-2-yl)-[1,1′-biphenyl]-4-carbonyl)pyrrolidin-3-yl)-5-(1-methyl-1H-pyrazol-4-yl)nicotinamide]",100 to 1000 nM
4,"CN1CCN(Cc2ccc(Oc3ccc(OC(=O)N4CC[C@@H](NC(=O)c5cc(-c6cnn(C)c6)cnc5N)C4)cc3)cc2)CC1 [Example 113, 4-(4-((4-methylpiperazin-1-yl)methyl)phenoxy)phenyl (R)-3-(2-amino-5-(1-methyl-1H-pyrazol-4-yl)nicotinamido)pyrrolidine-1-carboxylate]",100 to 1000 nM
5,"CC(c1cccc(Cl)c1)N1CC[C@@H](NC(=O)c2cc(-c3cnn(C4CCNCC4)c3)cnc2N)C1 (stereo partly drawn) [Example 149, 2-amino-N-((3R)-1-(1-(3-chlorophenyl)ethyl)pyrrolidin-3-yl)-5-(1-(piperidin-4-yl)-1H-pyrazol-4-yl)nicotinamide]",100 to 1000 nM
6,"Cn1cc(-c2cnc(N)c(C(=O)N[C@@H]3CCN(C(=O)c4ccc(-c5ccc(O[C@H]6CCNC6)cc5)cc4)C3)c2)cn1 [Example 541, 2-amino-5-(1-methyl-1H-pyrazol-4-yl)-N—((R)-1-(4′-(((S)-pyrrolidin-3-yl)oxy)-[1,1′-biphenyl]-4-carbonyl)pyrrolidin-3-yl)nicotinamide]",10 to 100 nM
7,"CC(c1ccccc1Cl)N1CC[C@@H](NC(=O)c2cc(-c3cnn(C4CCNCC4)c3)cnc2N)C1 (stereo partly drawn) [Example 148, 2-amino-N-((3R)-1-(1-(2-chlorophenyl)ethyl)pyrrolidin-3-yl)-5-(1-(piperidin-4-yl)-1H-pyrazol-4-yl)nicotinamide]",10 to 100 nM
8,"Cn1cc(-c2cnc(N)c(C(=O)N[C@@H]3CCN(C(=O)c4ccc(-c5cnn(C6CCN(C(=O)OC(C)(C)C)CC6)c5)cc4)C3)c2)cn1 [Example 511, tert-butyl (R)-4-(4-(4-(3-(2-amino-5-(1-methyl-1H-pyrazol-4-yl)nicotinamido)pyrrolidine-1-carbonyl)phenyl)-1H-pyrazol-1-yl)piperidine-1-carboxylate]",100 to 1000 nM
9,"Nc1ncc(-c2ccc(N3CCOCC3)cc2)cc1C(=O)N[C@@H]1CCN(C(=O)c2ccc(-c3ccc(F)cc3Cl)cc2)C1 [Example 782, (R)-2-amino-N-(1-(2′-chloro-4′-fluoro-[1,1′-biphenyl]-4-carbonyl)pyrrolidin-3-yl)-5-(4-morpholinophenyl)nicotinamide]",10 to 100 nM
10,"CC(C)(C)OC(=O)N1CCC(n2cc(-c3cnc(N)c(C(=O)N[C@@H]4CCN(C(=O)c5ccc(-c6ccccc6)cc5)C4)c3)cn2)CC1 [Example 561, tert-butyl (R)-4-(4-(5-((1-([1,1′-biphenyl]-4-carbonyl)pyrrolidin-3-yl)carbamoyl)-6-aminopyridin-3-yl)-1H-pyrazol-1-yl)piperidine-1-carboxylate]",10 to 100 nM
11,"Cn1cc(-c2cnc(N)c(C(=O)N[C@@H]3CCN(C(=O)c4ccc(-c5ccncc5)cc4)C3)c2)cn1 [Example 489, (R)-2-amino-5-(1-methyl-1H-pyrazol-4-yl)-N-(1-(4-(pyridin-4-yl)benzoyl)pyrrolidin-3-yl)nicotinamide]",100 to 1000 nM
